According to BindingDB's records for patent US20250346597 (Beone Medicines I, 2025):

Columns and labels:
[1] = molecular target: Diacylglycerol kinase zeta (Homo sapiens, UniProt Q13574); assay: Biochemical DGK IC50 Assays
Description: (§1) Enzymatic reactions of DGKζ, DGKα and DGKδ were performed using ADP-Glo assay with lipid micelle substrate. […] Full length DGKα (D21-10BG, SignalChem) and full length DGKδ (D23-10G, SignalChem) were purchased. […] The resulted product was resuspended in buffer containing 25 mM HEPES pH 7.0, 0.5 mM EDTA and 160 mM Octyl P-D glucopyranoside by vigorous mixing and ultrasonic (IID, Scientz). Final concentration in reaction. […] The inhibition activities testing for the compound disclosed herein were carried out at room temperature in assay buffer containing 50 mM HEPES, 10 mM MgCl2, 0.01% BSA, 0.1 mM Na3VO4, 0.005% Tween-20 and 0.01 mM CaCl2. […] 3 μL 2× enzyme solution was added to wells. […] After 1 hour reaction, 5 μL ADP-Glo reagent (Promga V9101) was added and incubated for 40 minutes. 10 μL Kinase Detection reagent was added and incubated for 30 minutes. Luminescence was measured on a microplate reader (PHERAstar FSX, BMG labtech). The IC50s are calculated based on inhibition of enzyme activity in the presence of increasing concentrations of compounds.

[2] = molecular target: Diacylglycerol kinase alpha (Homo sapiens, UniProt P23743); assay: Biochemical DGK IC50 Assays
Diacylglycerol kinase alpha, sequence (P23743 whole entry): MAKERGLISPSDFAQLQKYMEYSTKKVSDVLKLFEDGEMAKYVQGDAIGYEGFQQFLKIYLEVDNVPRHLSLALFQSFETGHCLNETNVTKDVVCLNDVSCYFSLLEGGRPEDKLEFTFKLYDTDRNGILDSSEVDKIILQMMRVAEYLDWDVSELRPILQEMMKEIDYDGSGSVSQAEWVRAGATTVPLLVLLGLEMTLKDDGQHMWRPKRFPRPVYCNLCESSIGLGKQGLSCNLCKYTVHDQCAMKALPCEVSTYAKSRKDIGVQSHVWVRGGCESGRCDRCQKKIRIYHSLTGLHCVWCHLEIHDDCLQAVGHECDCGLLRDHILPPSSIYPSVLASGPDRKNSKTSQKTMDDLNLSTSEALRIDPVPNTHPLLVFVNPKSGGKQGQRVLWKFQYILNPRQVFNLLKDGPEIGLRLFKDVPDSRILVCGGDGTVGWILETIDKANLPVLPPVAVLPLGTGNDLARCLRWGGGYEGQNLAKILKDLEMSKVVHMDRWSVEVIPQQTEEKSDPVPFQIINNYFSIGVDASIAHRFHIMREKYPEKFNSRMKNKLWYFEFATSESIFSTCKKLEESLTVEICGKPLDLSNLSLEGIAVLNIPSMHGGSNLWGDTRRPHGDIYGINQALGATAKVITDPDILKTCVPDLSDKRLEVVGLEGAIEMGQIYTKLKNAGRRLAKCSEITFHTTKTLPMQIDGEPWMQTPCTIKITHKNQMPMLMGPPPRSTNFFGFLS
Description: as §1

Diacylglycerol kinase zeta, sequence (Q13574 as listed by the source): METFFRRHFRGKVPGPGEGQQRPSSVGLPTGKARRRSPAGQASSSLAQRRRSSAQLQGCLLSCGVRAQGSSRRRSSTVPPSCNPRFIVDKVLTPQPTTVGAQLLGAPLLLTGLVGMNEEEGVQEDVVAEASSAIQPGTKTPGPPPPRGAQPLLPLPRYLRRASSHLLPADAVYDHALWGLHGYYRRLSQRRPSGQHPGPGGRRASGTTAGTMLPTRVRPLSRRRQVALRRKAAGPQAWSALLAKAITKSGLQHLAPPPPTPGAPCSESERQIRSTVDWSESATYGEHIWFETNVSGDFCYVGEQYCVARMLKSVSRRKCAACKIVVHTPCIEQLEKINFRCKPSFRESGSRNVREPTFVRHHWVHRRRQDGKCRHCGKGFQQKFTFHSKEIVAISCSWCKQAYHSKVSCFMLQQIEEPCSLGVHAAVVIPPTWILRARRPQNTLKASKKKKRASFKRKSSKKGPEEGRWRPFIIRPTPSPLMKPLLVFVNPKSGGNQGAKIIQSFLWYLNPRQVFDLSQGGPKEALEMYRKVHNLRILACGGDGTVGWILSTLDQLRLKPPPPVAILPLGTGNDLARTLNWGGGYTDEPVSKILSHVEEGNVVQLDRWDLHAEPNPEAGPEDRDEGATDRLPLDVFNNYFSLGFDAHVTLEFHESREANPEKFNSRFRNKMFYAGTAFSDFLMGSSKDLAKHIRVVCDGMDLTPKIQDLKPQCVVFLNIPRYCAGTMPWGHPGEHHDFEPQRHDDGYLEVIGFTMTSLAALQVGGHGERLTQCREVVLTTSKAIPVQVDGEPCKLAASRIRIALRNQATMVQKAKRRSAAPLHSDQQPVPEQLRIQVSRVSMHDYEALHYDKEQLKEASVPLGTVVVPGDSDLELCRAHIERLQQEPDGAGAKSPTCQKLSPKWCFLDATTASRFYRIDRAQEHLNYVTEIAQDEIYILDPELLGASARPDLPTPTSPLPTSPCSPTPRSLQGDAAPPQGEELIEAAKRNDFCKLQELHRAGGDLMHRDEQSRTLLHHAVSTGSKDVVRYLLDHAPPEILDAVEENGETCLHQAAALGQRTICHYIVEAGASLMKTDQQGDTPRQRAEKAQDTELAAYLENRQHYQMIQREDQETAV

Row | IC50 [1] | IC50 [2] | SMILES
1 | > 10000 nM |  | CC[C@H]1CN(C(C)c2ccc(N)nc2)[C@H](CC)CN1c1cc(=O)n(C)c2cn(CC#N)nc12 (single isomer, unassigned) [US20250346597, Compound A187b]
2 | 500 nM | 79 nM | CC[C@@H]1CN(C2CC(=O)N(C)C3=CN(CC#N)NC32)[C@@H](CC)CN1C(C)c1ccc(OCCOC)cc1 (stereo partly drawn) [US20250346597, Compound A11]
